ChEMBL document CHEMBL2074572, “Limited distribution of new quinolone antibacterial agents into brain caused by multiple efflux transporters at the blood-brain barrier” (J Pharmacol Exp Ther, 2000)

Experiments:
[1] = biological target: P-glycoprotein 1 and 3 (MDR1a/MDR1b) (Mus musculus, UniProt P21447+P06795); experiment: TP_TRANSPORTER: increase in brain concentration in mdr1a/1b(-/-) mouse; format: functional, organism-based; details: in vivo
[2] = biological target: Multidrug resistance-associated protein 1 (Homo sapiens, UniProt P33527); experiment: TP_TRANSPORTER: decrease in intracellular accumulation in HL60 and HL60/ADM cells; format: functional, cell-based
Multidrug resistance-associated protein 1, sequence (P33527 whole entry): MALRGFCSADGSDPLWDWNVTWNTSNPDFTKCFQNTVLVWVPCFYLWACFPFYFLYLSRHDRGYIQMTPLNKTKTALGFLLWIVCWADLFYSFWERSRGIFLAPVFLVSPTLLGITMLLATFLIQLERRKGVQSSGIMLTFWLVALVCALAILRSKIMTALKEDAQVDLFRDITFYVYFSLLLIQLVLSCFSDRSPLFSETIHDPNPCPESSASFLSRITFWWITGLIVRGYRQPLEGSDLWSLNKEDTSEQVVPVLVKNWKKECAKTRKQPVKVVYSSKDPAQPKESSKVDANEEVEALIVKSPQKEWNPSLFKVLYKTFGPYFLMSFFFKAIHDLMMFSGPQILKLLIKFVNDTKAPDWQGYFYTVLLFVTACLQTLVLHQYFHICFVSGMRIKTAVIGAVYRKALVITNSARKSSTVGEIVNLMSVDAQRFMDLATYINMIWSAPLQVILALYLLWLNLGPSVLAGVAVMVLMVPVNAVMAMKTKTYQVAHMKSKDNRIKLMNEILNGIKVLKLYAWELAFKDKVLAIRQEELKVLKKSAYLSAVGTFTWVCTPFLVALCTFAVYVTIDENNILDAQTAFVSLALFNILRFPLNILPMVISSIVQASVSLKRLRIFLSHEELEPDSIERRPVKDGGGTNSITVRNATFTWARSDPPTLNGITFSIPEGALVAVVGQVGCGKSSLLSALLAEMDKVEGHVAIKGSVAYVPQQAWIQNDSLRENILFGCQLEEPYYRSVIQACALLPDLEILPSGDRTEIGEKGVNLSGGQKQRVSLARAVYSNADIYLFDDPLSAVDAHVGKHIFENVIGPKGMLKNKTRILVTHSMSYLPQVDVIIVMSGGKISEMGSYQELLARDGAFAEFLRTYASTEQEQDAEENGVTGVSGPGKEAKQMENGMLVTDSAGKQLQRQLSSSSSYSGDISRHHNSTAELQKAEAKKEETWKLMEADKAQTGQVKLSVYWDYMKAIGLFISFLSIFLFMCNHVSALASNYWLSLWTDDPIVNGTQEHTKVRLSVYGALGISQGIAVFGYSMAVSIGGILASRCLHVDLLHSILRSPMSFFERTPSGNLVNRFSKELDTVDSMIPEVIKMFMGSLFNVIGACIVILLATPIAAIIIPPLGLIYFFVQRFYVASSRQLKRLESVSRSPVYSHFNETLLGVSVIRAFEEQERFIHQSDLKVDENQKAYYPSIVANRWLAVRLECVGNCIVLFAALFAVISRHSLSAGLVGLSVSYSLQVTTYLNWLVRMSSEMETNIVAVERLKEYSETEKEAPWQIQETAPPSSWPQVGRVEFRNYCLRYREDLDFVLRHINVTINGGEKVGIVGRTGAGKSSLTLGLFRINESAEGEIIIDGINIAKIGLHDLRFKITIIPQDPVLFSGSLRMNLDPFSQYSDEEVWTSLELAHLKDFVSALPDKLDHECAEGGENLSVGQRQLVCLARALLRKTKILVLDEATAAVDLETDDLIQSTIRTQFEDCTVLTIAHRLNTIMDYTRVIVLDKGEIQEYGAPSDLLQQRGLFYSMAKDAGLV

C[C@@H]1CN(c2c(F)c(N)c3c(=O)c(C(=O)O)cn(C4CC4)c3c2F)C[C@H](C)N1 [SPARFLOXACIN]
Activity [1]: substrate [+]

Cc1c(F)c(N2CCNC(C)C2)cc2c1c(=O)c(C(=O)O)cn2C1CC1 (configuration not stated) [GREPAFLOXACIN]
Activity [2]: substrate [+]
